Earlier results in US20090285767A1, “USE OF OZONATED LIQUIDS AND PEROXIDES TO WHITEN TEETH” (priority 2008, published 2009).

Conditions: gaseous ozone, device of the Lynch '985 patent

## O=[O+][O-] [gaseous ozone, ozone]
  whitening of extrinsic discoloration, effect on brown-colored melanoidins: ability of gaseous ozone to whiten extrinsic discoloration
